Measurements as given in US20030022872A1, “Vitamin d derivatives having substituents at the 2 alpha-position” (priority 2000, published 2003).

Molecular target: T1, bovine thymus vitamin D receptor (VDR) (Bos taurus, UniProt Q28037)
T1 sequence (Q28037 1-426): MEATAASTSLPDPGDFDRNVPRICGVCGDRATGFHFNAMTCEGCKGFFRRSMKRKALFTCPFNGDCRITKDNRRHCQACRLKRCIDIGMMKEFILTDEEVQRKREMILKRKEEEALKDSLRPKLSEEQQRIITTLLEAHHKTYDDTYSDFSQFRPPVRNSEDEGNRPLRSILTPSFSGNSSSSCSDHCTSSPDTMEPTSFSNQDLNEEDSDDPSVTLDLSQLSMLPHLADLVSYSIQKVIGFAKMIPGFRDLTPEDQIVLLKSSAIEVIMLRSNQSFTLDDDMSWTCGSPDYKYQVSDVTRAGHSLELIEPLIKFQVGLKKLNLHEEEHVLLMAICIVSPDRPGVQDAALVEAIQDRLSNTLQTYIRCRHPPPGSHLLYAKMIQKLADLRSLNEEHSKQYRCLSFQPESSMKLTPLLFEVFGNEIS
Conditions: relative value with 1α,25-dihydroxyvitamin D3 taken as 100; ratio of concentrations inhibiting 50% of [3H]-1α,25-dihydroxyvitamin D3 binding (0.1 nM tracer, overnight at 4° C.)
Procedure: Each of the resultant supernatants (500 μl) was mixed with ACS-II (9.5 ml) ([sequence], England) for radioactivity measurement.
X: relative VDR binding property of the vitamin D derivative of the present invention

Substance: (5Z,7E)-(1S,2S,3R,20R)-2-(3-hydroxypropoxy)-9,10-seco-5,7,10(19)-cholestatriene-1,3,25-triol [Compound 16]
- relative VDR binding property X=(y/x)×100: 180
